# Assay: Solubility of sucralose in non-aqueous liquids
# Format: physicochemical
# Details: 1,3-propanediol vs propylene glycol
# Excerpt: Therefore, beverage concentrates containing sucralose may be advantageously prepared using a solvent comprising 1,3-propanediol to provide a beverage concentrate that is able to maintain sucralose in solution throughout its shelf life. In other instances, selection of NAL may also depend, at least in part, on the flavor provided by the NAL and the desired taste profile in the final beverage. In yet other instances, selection of NAL may also depend, at least in part, on the viscosity and/or the desired density of the resulting concentrate.
compound,measurement,value
OC[C@H]1O[C@H](O[C@]2(CCl)O[C@H](CCl)[C@@H](O)[C@@H]2O)[C@H](O)[C@@H](O)[C@H]1Cl [sucralose],solubility in non-aqueous liquid,"more readily solubilized in 1,3-propanediol than in propylene glycol"

# Reference: patent US20130040036A1, “Shelf Stable, Low Water Liquid Beverage Concentrates And Methods Of Making The Same” (priority 2011, published 2013)
